Assay results taken from PMC3283556, “The Activities of Current Antimalarial Drugs on the Life Cycle Stages of Plasmodium: A Comparative Study with Human and Rodent Parasites” (PLoS Medicine, 2012).
“Also recorded” adds a separate entry of the source. Where two headings read alike, the source gives them in different places.

Legend:
Plasmodium oocysts = experiment: Oocyst development / sporogony, Plasmodium species not stated at the place; type: in vivo; conditions: for inhibition at 10 µM: Plasmodium, box linked to oocysts, read-out: Inhibition at 10 μM (oocysts, Figure 5)
Protocol: Membrane feeds were performed as described previously. Briefly, PbGFPcon-infected mouse blood was mixed with compounds, immediately placed into membrane feeders (39°C) and offered for 30 min to 80–100 overnight-starved A. stephensi (SDA 500 strain). After 7–9 d at 19°C/80%RH, mosquito midguts were dissected out. Midguts were fixed with paraformaldehyde and oocyst number was determined microscopically by semi-automated analysis as previously described.
Gametocyte cultures were produced according to the same protocol as the Pf exflagellation assay. Pooled gametocyte cultures were evenly divided between compounds in fresh medium and incubated at 37°C for 24 h. The parasite pellets were then resuspended in fresh RBCs and human serum treated with the compounds to a 50% haematocrit and immediately fed to mosquitoes as described above and then maintained at 27°C/60%RH for 10–12 d before dissection and counting. […]

[1] = system: P. falciparum oocyst formation; experiment: Standard membrane feed assay, P. falciparum oocysts in A. stephensi; type: in vivo, Plasmodium falciparum; conditions: 10 µM, gametocytes exposed 24 h before feeding
Protocol: Gametocyte cultures were produced according to the same protocol as the Pf exflagellation assay. Pooled gametocyte cultures were evenly divided between compounds in fresh medium and incubated at 37°C for 24 h. The parasite pellets were then resuspended in fresh RBCs and human serum treated with the compounds to a 50% haematocrit and immediately fed to mosquitoes as described above and then maintained at 27°C/60%RH for 10–12 d before dissection and counting.
Figure 3 The transmission-blocking potential of selected antimalarials in three bioassays that cover different phases of Plasmodium vector stage development. (A) Assays examined exflagellation (P. falciparum), ookinete formation (P. berghei), or oocyst formation (P. falciparum). All antimalarials were screened at 10 µM. (B) The biological content of the in vitro P. berghei ookinete assay spans gamete formation, fertilization, zygote development, and ookinete formation. Ookinete formation was insensitive to most of the antimalarials tested. […] (D) The in vitro P. falciparum exflagellation assay exposes mature gametocytes to antimalarials for 24 h before triggering exflagellation. […] All experiments in triplicate. (E) The in vivo P. falciparum oocyst assay differs from the P. berghei oocyst assay in that mature gametocytes were exposed to the antimalarials in culture for 24 h before feeding to mosquitoes. […] NPC1161-B, lumefantrine, halofantrine, and mefloquine +RS isomer were also active. (n = 4–61 observations; average ± standard error of the mean [SEM]).

[2] = system: P. yoelii liver stage parasites (liver schizonts); experiment: P. yoelii liver stage assay in HepG2 cells (EEF immunofluorescence); type: cell-based, Plasmodium yoelii; conditions: for IC50: Plasmodium yoelii
[3] = system: P. falciparum mature gametocytes / male gamete exflagellation; experiment: P. falciparum exflagellation assay; type: cell-based, Plasmodium falciparum; conditions: for inhibition at 10 µM: Plasmodium falciparum
[4] = 10 µM, 24 h exposure of mature gametocytes

Structure (SMILES)	inhibition at 10 µM (Plasmodium oocysts)	transmission-blocking effect on P. falciparum oocysts (words) [1]	IC50 ([2]; HepG2, development of P. yoelii liver schizonts following infection of HepG2 cells, read-out: IC50 Parasite)	effect on exflagellation (words) [3, 4]	enhancement (stimulation) of exflagellation [3, 4]	effect on sporogony / oocyst production (Plasmodium oocysts; species not given)	transmission-blocking effect on P. falciparum oocysts (words) ([1]; listed as NPC1161-B)	IC50 ([2]; HepG2, box linked to liver schizont, read-out: IC50 (liver schizont, Figure 5))	IC50 ([2]; development of P. yoelii liver schizonts following infection of HepG2 cells, read-out: IC50 Parasite)	potency range against liver stages ([2]; dose response)	effect on exflagellation (words) ([3]; 10 µM, 24 h exposure of mature gametocytes, listed as NPC1161-B)	inhibition at 10 µM ([3]; read-out: inhibition of exflagellation, 10 µM, 24 h exposure of mature gametocytes)	inhibition at 10 µM ([3]; 10 μM, box linked to gametocytes/exflagellation, read-out: Inhibition at 10 μM (gametocytes/exflagellation, Figure 5))
CCCCN(CCCC)CCC(O)c1cc2c(Cl)cc(Cl)cc2c2cc(C(F)(F)F)ccc12 (stereo not shown) [halofantrine]	> 90%	active; also recorded: impaired sporogony	2.32 ± 1.35 µM	only moderate or no inhibition of exflagellation	45%								
COc1cc(N[C@H](C)CCCN)c2nccc(C)c2c1Oc1ccc(Cl)c(Cl)c1 [NPC-1161B]	> 90%	totally blocked transmission		inhibited exflagellation totally; also recorded: inhibit exflagellation in vitro; also recorded: inhibited both exflagellation and oocyst production		inhibits sporogony; also recorded: inhibit exflagellation in vitro and oocyst production in the mosquito vector; also recorded: inhibited both exflagellation and oocyst production	active; also recorded: showed potency	< 1 µM	0.72 ± 0.07 µM	submicromolar range	showed potency	> 70%	> 60%
